Laboratory results: patent US10827753B2, “Compositions and methods for controlling nematodes” (Monsanto Technology LLC, priority 2007, dated 2020)
Marks after values point to notes of the source that are not given here.

How the values were obtained:
[1] = test system: root knot nematode (RKN); test: RKN greenhouse soil assay on cucumber plants; assay type: in vivo, Meloidogyne incognita; details: 0 day treatment, test c
Description: Cucumber seeds are planted in a sandy soil mixture in two inch square plastic pots. When the cotyledons are fully opened and just as the first leaf begins to emerge, usually 7 days after planting, chemistry for the 7 day treatment is applied. One week later the chemistry for the 0 day treatment is applied. Separate plants are used for each application. The plants are generally in the 1-2 leaf stage now. At least four hours after the chemistry application the pots are inoculated with root knot nematode (RKN) eggs. Plants are rated for galling 14 days after the egg inoculation.
One milligram of chemistry per four pots is equal to one kilogram per hectare of chemical. A standard test uses four replications. For rates above 2 kg/ha, the desired amount of chemical is weighed into a 30 ml vial (example: 8 kg/ha rate=8 mg chemical in 30 ml vial). The chemical is dissolved in 2 ml of appropriate solvent, generally acetone. For rates below 2 kg/ha, 2 milligrams of chemistry is weighed into the vial and dissolved in 2 ml of the solvent. The appropriate amount of chemical concentrate is then pipetted into a separate 30 ml vial and solvent is added to bring the volume to 2 ml (example 0.5 kg/ha=0.5 ml of concentrate+1.5 ml solvent). Each dissolved concentrate is then brought to a total of 20 milliliters using 0.05% Triton X 100 surfactant solution.
Pots to be treated are moist but not saturated. To each of four pots, five milliliters of the appropriate chemical solution is pipetted to the media surface making sure to avoid contact with the base of the plant. Immediately following chemical application, using a mist nozzle, the pot surface is wetted sufficiently to saturate the pot watering in the chemistry. The chemical application is done in the morning.
Nematode eggs, either SCN or RKN, are added to distilled water to create a concentration of 1000 vermiform eggs […]. At least four hours after chemical treatment the eggs are applied to the treated pots plus non-treated check plants. A small hole about 1 cm deep is punched into the pot surface. One milliliter of the nematode egg slurry is pipetted into the hole. Immediately afterwards the hole is gently covered. Watering of the test plants is then restricted to only water as needed to prevent wilt for a period of 24 hours. After the 24 hour restricted watering, normal sub-irrigation watering is done for the duration of the test.

[2] = test system: Meloidogyne incognita; test: M. incognita miniaturized greenhouse assay on cucumber seedlings (root galling); assay type: in vivo; set-up: key to 1 ppm gall ratings / 1 ppm gall rating: mean of 3 gall ratings: 0=0-5%, 1=6-20%, 2=21-50%, 3=51-100% root galled
Method: The test compound is dissolved in an acetone solution and added to water. A sprouted cucumber seedling is placed into a vial with dry sand and the water-chemical solution is added immediately. Twenty four hours later Meloidogyne incognita eggs are added to the vials and 10 to 12 days later the roots are evaluated for nematode galling.
Cucumber seeds are sprouted for 3 days in moist paper towels. Acceptable sprouts should be 3 to 4 cm long with several lateral roots just emerging. Stock solutions of chemistry are prepared in a mixture of acetone and Triton X100 (412 mg in 500 mL) to a final concentration of 5 mg/mL. The chemical stock solution is then added to 10 mL deionized water plus 0.015% Triton X100 and mixed thoroughly. This is enough to test each condition in triplicate. Ten mL dry sand is added to each vial. At this time the solubility of the chemistry is visually determined and recorded as either ppt (large precipitates) or cloudy (fine precipitates). Seedlings are planted by tilting the vial and laying the seedling in the correct orientation so that the cotyledons are just above the sand and then tilting back to cover the radicles with sand. 3.3 ml water/chemical mix is added to each vial and the vials placed in racks under fluorescent light banks. The vials are inoculated two days after planting by adding 500 vermiform M. incognita eggs to each vial in 50 uL of deionized or spring water. The vials are then kept under the fluorescent lamps at ambient room temperature and watered as needed with 1 mL deionized water, usually twice during duration of test. Harvest of the cucumber plants is done 10 to 12 days after inoculation by washing sand off the roots. A root gall rating and visual phytotoxicity rating is assigned using the following scales: Gall rating scale (Gall: % root mass galled): 0=0-5%; 1=6-20%; 2=21-50%; and 3=51-100%. The average of the triplicate gall rating is then calculated: green=0.00-0.33 (no galls); yellow=0.67-1.33 (mild galling); orange=1.67-2.33 (moderate galling); red=2.67-3.00 (severe galling). Visual phytotoxicity scale is also assigned (Vis. tox; visual reduction in root mass compared to the control): rs1=mild stunting; rs2=moderate stunting; rs3=severe stunting.

[3] = test system: CD-1/Swiss derived albino mice; assay type: in vivo; details: 500 mg/kg oral, three female mice, observed up to 14 days
Method: Acute oral toxicity testing was performed in mice in accordance with test method P203.UDP, as administered by Eurofins/Product Safety Laboratories (Dayton, N.J.). CD-1/Swiss derived albino mice were obtained and group housed in suspended solid bottom caging. The mice were fed rodent chow and filtered tap water was supplied ad libitum. Following acclimation to the laboratory setting, a group of animals was fasted overnight by removing food from the cages. After the fasting period, three female mice were selected based on vitality and initial body weights. The individual compound doses were calculated from these body weights.
The test substance was prepared as a 1% (50 mg/kg) or 5% (500 mg/kg) weight to weight (w/w) mixture in a 0.5% w/w solution of carboxymethylcellulose (CMC) in distilled water. A tissue homogenizer was used to create a homogeneous mixture. A dose of 50 or 500 mg/kg was administered to three healthy mice per dose level by oral intubation using a ball-tipped gavage needle attached to a syringe. After administration, the animals were returned to their cages, and feed was replaced immediately after dosing.
Body weights were recorded prior to initiation and on Days 7 and 14 or a soon as possible after death.

[4] = test system: Meloidogyne incognita; test: Summer field evaluation of pre-plant incorporated compounds on squash; assay type: in vivo
Method: Test plots of 33 cm diameter holes were bored 41 cm deep into clay soil and filled with a mixture of 80% sand and 20% silt loam soil. Technical compound for each treatment was dissolved in 50 ml acetone containing 250 ul of Triton X-100 surfactant. This solution was added to 450 ml water and poured onto 95 liters of sand/soil mixture in a rotating drum mixer. While continuing to rotate the mixing drum 66 grams of chopped, galled, tomato roots was added and thoroughly distributed. The treated soil was sufficient to fill the top 15 cm of each of the 6 replicate plots, thus simulating a PPI treatment. The plots were then watered lightly and a mixture of M. incognita eggs and larvae were injected 5 cm deep at 5 points within the plot (100 k eggs/larvae in 10 ml per plot). Three-week old squash (cv. Liberator III) with 1 fully expanded true leaf was planted 4 days after soil treatment, one per plot.

[5] = test system: C. elegans; test: Three day C. elegans well assay; assay type: in vivo; details: for EC50 L1 1D: L1 larvae; for EC50 L1 1D / EC50 L4 1D: one day of exposure; for EC50 L4 2D (F1): effects on the second generation larvae (F1)
Method: Various compounds were tested for nematicidal activity against C. elegans using contact assays in wells. The assays were performed as described below. The test compounds were solubilized in DMSO at 10 mg/ml to create 100× stock solutions. A dilution series was created by diluting the stock solution with DMSO. For each well assay 4 ul of the appropriate dilution is added to a well of a test plate. A 400 ul aliquot of bacterial stock (in M9 buffer with ampicillin and nystatin) are added to each well of the test plate. Worms are added and the test plate placed on a rotary shaker and held at 20° C. Worms are examined and scored at 4 hrs, 24 hrs, 48 hrs and 72 hours. L1 worms and L4 worms were used in the assay. L1 worms are prepared by plating eggs on a plate without a bacterial feeding layer. The eggs hatch and arrest at the L1 stage. This L1 stage population is then used to create a stock for the experiments. To create an L4 stage stock a small number of worms are taken from an overgrown and starved plate of worms and seeded on a plate with a bacterial feeder layer. A 25 ul aliquot of worms is added to each well in the assay.

[6] = test system: Meloidogyne incognita; test: Fall nematicidal field testing on squash microplots; assay type: in vivo
Description: The test site was located at 3511 Highway F in New Melle, Mo., Saint Charles county. The soil was a native prairie/pasture covering silty clay loam soil. Holes were dug using a Bobcat 763 skid loader with a 12-inch auger to a depth of 18 inches. Total volume of each hole was about 1.2 cubic feet. Six cubic yards of topsoil and 9 tons of river sand were purchased from Dardenne Farms Topsoil. Mixing to a ratio of 4 volumes sand to 1 volume soil was accomplished using a trailer-mounted 9 cubic foot concrete mixer. Holes were filled and then re-filled 5 days later after settling. The mixture was 92.5% sand, 2.5% silt, and 5% clay. Organic matter was 0.2% and pH was 6.8.
Treatments were arranged in a block design with the blocks laid out perpendicular to the primary slope and parallel to secondary slope. There are 7 inoculated controls and 5 non-inoculated controls and the distributions of disease severity appeared independent of location.
Application rates are expressed as kg of active material per hectare, and the mg per plot is based on the surface area of the bored and filled holes (0.000008559 Ha). The DC compounds were formulated immediately before application as follows: 1) the amount required to treat all six replicates was dissolved in 300 ml of acetone, 2) for each plot 50 ml of that solution was added to a graduated cylinder with 2 ml of 12.5% Triton X100 and the volume was raised to 500 ml with tap water. The resultant mix is the same as used in the standard greenhouse assays (10% acetone, 0.05%×100). The oxamyl treatments were prepared from Vydate 2 L formulated the same way. The 500 ml was placed in a watering can and the entire volume was evenly sprinkled over the surface of the plot. No runoff occurred and pooling, if any, was short lived. The final drench volume was 0.58 ml/cm^2, compared to 0.2 ml/cm^2 used in our greenhouse, however the microplots are much deeper so the drench volume applied per soil volume treated is roughly the same.
Meloidogyne incognita eggs were harvested over a two week period and stored at approximately 5° C. until needed. A stock of 5.6 million vermiform eggs was adjusted to 9000/ml in 620 ml. One day after treatment, two holes were made in each plot about 7 cm apart and equidistant from the squash plants. Five ml of egg suspension was pipetted into each hole, which was then sealed and the plot lightly watered. A total of 90,000 vermiform eggs were added to each plot.
The first root evaluation was at 28 DAT. The tops were cut off and weighed immediately in the field, and the roots were carefully dug out so as not to disturb the remaining plant.

[7] = test system: sting (Belonolaimus longicaudatus) nematodes; test: Sting nematode bench top soil assay; assay type: in vivo
Method: Populations of sting (Belonolaimus longicaudatus) nematodes are maintained on St. Augustine turf grass on soil in 15-cm pots. At test initiation the turf is removed from the pots and the soil containing nematode eggs, juveniles, and adults is subdivided into pots each containing a volume of 125 cm^3′ The compounds to be tested are dissolved in 3 ml of acetone using 3, 6, or 15 mg to achieve equivalent surface area application rates of 2, 4, or 10 kg/ha, respectively. The 3 ml acetone stock solution is added to 30 ml of water, and 5 ml of that solution is used to drench each of 6 replicate test pots prepared as described above. The treated pots containing nematodes are incubated in the laboratory at ambient temperature of approximately 25° C. After 3 days the soil from each pot is washed onto a modified Baermann apparatus comprised of a screen supporting a layer of filter paper on which the soil sample is placed and set in a dish of water. The samples are then incubated at 25° C. for 24 hours to allow the live nematodes to migrate through the paper and screen and into a water reservoir to be collected for counting with a light microscope. Nematodes that have been killed or immobilized by the test compounds are not able to migrate into the reservoir.

[8] = L4 larvae, two days of exposure

For `Clc1ccc(-c2nsc(-c3ccco3)n2)c(Cl)c1` [compound 5960], the “percent control (galling reduction) relative to the control blank treatment” value ([1]; 0.05 kg/ha) was “— — 75^c percent”, the “percent control (galling reduction) relative to the control blank treatment” value ([1]; 0.1 kg/ha) was “— — 75^c percent” and the “percent control (galling reduction) relative to the control blank treatment” value ([1]; 0.25 kg/ha) was “— — 76^c percent”. For the same molecule, the “1 ppm gall ratings” value ([2]; Table 1B test e) was 0.33^e, the “mortality, signs of gross toxicity and behavioral changes” value [3] was “all animals survived, gained body weight, and appeared active and healthy” and the “0-3 vigor 16 DAP” value ([4]; 4 kg (kg/ha) PPI, squash) was 3.0. For the same molecule, the “0-3 vigor 21 DAP” value ([4]; 4 kg (kg/ha) PPI, squash) was 3.0, the “feeder root (3 = ave) 31 DAP” value ([4]; 4 kg (kg/ha) PPI, squash) was 3.3 and the “gall % 31 DAP” value ([4]; 4 kg (kg/ha) PPI, squash) was 24%. For the same molecule, the “root wgt (g) 31 DAP” value ([4]; 4 kg (kg/ha) PPI, squash) was 32.6 g, the “top wgt (lbs) 31 DAP” value ([4]; 4 kg (kg/ha) PPI, squash) was 1.58 lbs and the “total fruit (lbs)” value ([4]; 4 kg (kg/ha) PPI, squash) was 1.61 lbs. For the same molecule, the “control of M. incognita (in words)” value ([4]; PPI application at 4 kg/ha) was “significant control”.
In the case of `Cc1cc(F)ccc1-c1noc(-c2cccs2)n1` [compound 5845], the “EC50 L1 1D” value [5] is reported as “no” and the “EC50 L4 1D” value ([5]; L4 larvae) is reported as “no”.
`Fc1ccc(-c2noc(-c3ccco3)n2)c(F)c1` [compound 5849] was tested, and the “EC50 L4 1D” value ([5]; L4 larvae) was “no” and the “EC50 L4 2D (F1)” value [5, 8] was “(6.3 F1) parts per million”.
In the case of `Cc1cc(Cl)ccc1-c1noc(-c2cccs2)n1` [compound 5822], the “EC50 L4 1D” value ([5]; L4 larvae) is reported as “no”.
`Fc1ccc(-c2noc(-c3cccs3)n2)c(F)c1` [compound 5847] was tested, and the “EC50 L1 1D” value [5] was “no” and the “EC50 L4 1D” value ([5]; L4 larvae) was “no”.
With `Clc1cc(-c2noc(-c3ccco3)n2)ccc1Br` [compound 5821] the “EC50 L4 1D” value ([5]; L4 larvae) was “no” and the “EC50 L4 2D (F1)” value [5, 8] was “(0.4 F1) parts per million”.
`Clc1ccccc1-c1cnc(-c2ccco2)o1` [compound 5828] was tested, and the “EC50 L4 1D” value ([5]; L4 larvae) was “no”, the “EC50 L4 3D” value ([5]; L4 larvae, three days of exposure) was “no” and the “EC50 L4 2D” value [5, 8] was “no”.
`Clc1ccc(-c2nnc(-c3cccs3)o2)cc1` [compound 4559] was tested, and the “1 ppm gall ratings” value ([2]; Table 1B test a) was 1^a (1=6-20%), the “8 ppm gall ratings” value ([2]; 8 ppm, average of triplicate gall rating, scale 0-3 (% root mass galled)) was 0 (0=0-5%) and the “RG28 = % root galls at 28 days after treatment” value ([6]; 2 kg ai/ha drench, squash) was 34.2%. The “RG43 = % root galls at 43 days after treatment” value ([6]; 2 kg ai/ha drench, squash) was 24.0%, the “control of root galling compared with oxamyl at an equivalent rate” value ([6]; 2 kg/ha, 43 day time point) was “significantly better than oxamyl” and the “Number of nematodes recovered from treated soil after 3 days incubation with the compound” value (“Number of nematodes recovered” below) ([7]; 2 kg/ha) was 39. The “Number of nematodes recovered” value ([7]; 4 kg/ha) was 47 and the “Number of nematodes recovered” value ([7]; 10 kg/ha) was 33.
